In paper PMC12524621 (2025):

How the values were obtained:
Test in all cases: fluorescence light-up (580/640 nm)
[1] = tested on: CleavedCV30S_1 (m + f) (DNA, aptamer) AACGACCACCGGTGTTTTTT/AAAAAACGCCGTACAGGTAACTAGCGTCGTCGTT; conditions: 62.5 mM K+, 50 mM Na+, Mg2+ (concentration not stated); 25 mM Tris-HCl pH 7; fourth best cleavage site
[2] = tested on: CV30S_8 long-armed binary sensor + analyte (DNA, aptamer) TTACCCCACCAACTAGCTAATCCCACTTTAACGACCACCGGTGCGCCGTATTTTTT/AAAAAACAGGTAACTAGCGTCGTCGTTTTTCTGGGCATATCCAATCGCGCAA/TCGGGCCTTGCGCGATTGGATATGCCCAGGTGGGATTAGCTAGTTGGTGGGGTAATGG; conditions: 62.5 mM K+, 50 mM Na+, Mg2+ (concentration not stated); 25 mM Tris-HCl pH 7, incubated at 55 °C; analyte 1 µM; S/B 2.1
[3] = tested on: G4 parallel long-armed binary sensor + analyte (DNA, G4) TTACCCCACCAACTAGCTAATCCCACTTTTTTGGGTAGGG/GGGTTGGGTTTTTTCTGGGCATATCCAATCGCGCAA/TCGGGCCTTGCGCGATTGGATATGCCCAGGTGGGATTAGCTAGTTGGTGGGGTAATGG; conditions: 62.5 mM K+, 50 mM Na+, Mg2+ (concentration not stated); 25 mM Tris-HCl pH 7, incubated at 55 °C; analyte 1 µM; S/B 3.3
[4] = tested on: G4 parallel (Aptamer_G4_parallel) (DNA, G4) GGGTAGGGCGGGTTGGG; conditions: 62.5 mM K+, 50 mM Na+, Mg2+ (concentration not stated); 25 mM Tris-HCl pH 7, ~22 °C, 1.7 µM each; S/B 1.9, poorest of three
[5] = tested on: G4 antiparallel long-armed binary sensor + analyte (DNA, G4) TTACCCCACCAACTAGCTAATCCCACTTTTTTAGGGTTAGG/GTTAGGGTTAGGGTTTTTTCTGGGCATATCCAATCGCGCAA/TCGGGCCTTGCGCGATTGGATATGCCCAGGTGGGATTAGCTAGTTGGTGGGGTAATGG; conditions: 37.5 mM K+, 50 mM Na+, Mg2+ (concentration not stated); 25 mM Tris-HCl pH 7, incubated at 55 °C; analyte 1 µM; S/B 3.3
[6] = tested on: G4 parallel short-armed binary sensor + analyte (DNA, G4) AACTAGCTAATCCCACTTTTTTGGGTAGGG/GGGTTGGGTTTTTTCTGGGCATATCCAA/TCGGGCCTTGCGCGATTGGATATGCCCAGGTGGGATTAGCTAGTTGGTGGGGTAATGG; conditions: 62.5 mM K+, 50 mM Na+, Mg2+ (concentration not stated); 25 mM Tris-HCl pH 7, incubated at 37 °C; analyte 1 µM; S/B 3
[7] = tested on: G4 antiparallel short-armed binary sensor + analyte (DNA, G4) AACTAGCTAATCCCACTTTTTTAGGGTTAGG/GTTAGGGTTAGGGTTTTTTCTGGGCATATCCAA/TCGGGCCTTGCGCGATTGGATATGCCCAGGTGGGATTAGCTAGTTGGTGGGGTAATGG; conditions: 37.5 mM K+, 50 mM Na+, Mg2+ (concentration not stated); 25 mM Tris-HCl pH 7, incubated at 37 °C; analyte 1 µM; S/B 3.2
[8] = tested on: CleavedCV30S_3 (m + f) (DNA, aptamer) AACGACCACCGGTGCGCCGTACAGGTTTTTTT/AAAAAAAACTAGCGTCGTCGTT; conditions: 62.5 mM K+, 50 mM Na+, Mg2+ (concentration not stated); 25 mM Tris-HCl pH 7; third best cleavage site
[9] = tested on: CV30S_8 short-armed binary sensor + analyte (DNA, aptamer) AACTAGCTAATCCCACTTTAACGACCACCGGTGCGCCGTATTTTTT/AAAAAACAGGTAACTAGCGTCGTCGTTTTTCTGGGCATATCCAA/TCGGGCCTTGCGCGATTGGATATGCCCAGGTGGGATTAGCTAGTTGGTGGGGTAATGG; conditions: 62.5 mM K+, 50 mM Na+, Mg2+ (concentration not stated); 25 mM Tris-HCl pH 7, incubated at 37 °C; analyte 1 µM; S/B 2.2
[10] = tested on: G4 antiparallel (Aptamer_G4_antiparallel) (DNA, G4) AGGGTTAGGGTTAGGGTTAGGG; conditions: 37.5 mM K+, 50 mM Na+, Mg2+ (concentration not stated); 25 mM Tris-HCl pH 7, ~22 °C, 1.7 µM each; S/B 8.7
[11] = tested on: CleavedCV30S_2 (m + f) (DNA, aptamer) AACGACCACCGGTGCGCCGTTTTTTT/AAAAAAACAGGTAACTAGCGTCGTCGTT; conditions: 62.5 mM K+, 50 mM Na+, Mg2+ (concentration not stated); 25 mM Tris-HCl pH 7; best of eight cleavage sites
[12] = tested on: CleavedCV30S_8 (m + f) (DNA, aptamer) AACGACCACCGGTGCGCCGTATTTTTT/AAAAAACAGGTAACTAGCGTCGTCGTT; conditions: 62.5 mM K+, 50 mM Na+, Mg2+ (concentration not stated); 25 mM Tris-HCl pH 7; second best cleavage site
[13] = tested on: CV30S (Aptamer_CV30S) (DNA, aptamer) AACGACCACCGGTGCGCCGTACAGGTAACTAGCGTCGTCGTT; conditions: 62.5 mM K+, 50 mM Na+, Mg2+ (concentration not stated); 25 mM Tris-HCl pH 7, ~22 °C, 1.7 µM each; S/B 7.8

Measured: binding

CN(C)c1ccc(C(=C2C=CC(=[N+](C)C)C=C2)c2ccc(N(C)C)cc2)cc1
yes: [1] | [2] | [3] | [4] | [5] | [6] | [7] | [8] | [9] | [10] | [11] | [12] | [13]
